{"source": "patent US20190054070A1", "about": "“Methods and Compositions for Regenerative Synaptogenesis” (priority 2017, published 2019)", "key": {"[1]": {"test_system": "cultured hippocampal neurons", "experiment": "Dendritic spine morphology of GFP-Actin transfected neurons by confocal microscopy", "format": "cell-based, rat", "details": "for spine head width: untreated 0.753±0.038 μm; for spine length: untreated 1.819±0.064 μm; for spine density: untreated 4.58±0.43", "description": "(§1) Cultures of dissociated hippocampal neurons from embryonic day 18 rats were prepared as previously described (51). Cultured neurons at 10 days in vitro (DIV) were exposed to arginine N-methyltransferase inhibitor-1 (AMI-1; 2.5 or 10 μM, Enzo Life Sciences) in plating media minus additional glutamate for the indicated times.\n(§2) To identify the effects of genetic knock-down of CARM1 on dendritic morphology and synaptic clustering of synapsin, NR2B, and PSD-95, hippocampal neurons were first transfected with the construct pCAG-mGFP-Actin [a gift from Ryohei Yasuda (Addgene plasmid #21948)] at 7 DIV with Lipofectamine 2000 (Invitrogen) following the manufacturer's protocol. After a 2-day incubation, neurons were untreated or transduced with rat CARM1- or PRMT1-specific siRNA or scrambled control siRNA lentiviral particles (5×10^3 viral particles/μl, Santa Cruz) at a multiplicity of infection (MOI) of 4 to ensure efficient infection following the manufacturer's protocol, followed by overnight incubation. After a media change with plating media minus glutamate, cells were incubated for an additional 4 days, and then a portion of the cells was either lysed and used for total RNA isolation and RT-qPCR experiments, lysed and used for immunoblot analysis, or fixed for immunocytochemical analysis.\n(§3) Cultures neurons were treated as described above and then fixed in 2% paraformaldehyde/4% sucrose/PBS for 10 min at room temperature (RT) followed by methanol for 20 min at −20° C. The fixed neurons were incubated in preblock buffer (20 mM phosphate buffer, pH 7.4, 5% normal goat serum, 0.05% Triton X-100, and 450 mM NaCl) at 4° C. overnight with the following primary antibodies: mouse anti-CARM1 (1:200, Cell Signaling), rabbit anti-CARM1 (1:200, Cell Signaling), rabbit anti-NR2B (1:200, Millipore), mouse anti-NR2B (1:150, Thermo Fisher), mouse anti-PSD-95 (1:100, Cell Signaling), mouse anti-synapsin (1:200, Santa Cruz), or rabbit anti-synapsin (1:250, Millipore), followed by incubation with the appropriate secondary antibodies (Alexa 488-anti-rabbit or 546-anti-mouse; each at 1:1000, Invitrogen) in preblock buffer at RT for 1 hr. After immunostaining, the cells were mounted as previously described (50) and viewed on a Zeiss LSM 710 laser-scanning confocal microscope. Images were acquired under a 63× or 100× oil immersion objective lens and scanned for further analysis.\n(§4) Confocal microscope images for each treatment from each of 3 independent sets of experiments were imported into Image J (NIH) software. To determine the proportion of CARM1 signal that co-localizes with PSD-95 or synapsin, Image J (NIH) software was used with Just Another Colocalization (JACoP) plugin set. A Mander's coefficient was calculated and the average value (N=10) was further analyzed. Dendritic spine length (from dendritic shaft to the top of spine head) and dendritic spine width (diameter of the widest part of spine head) were measured and dendritic spine density (number of spines/10 μm of dendrite) was also counted. Dendritic spine shape (stubby, mushroom, or filopodium) was identified as described in previous research (5, 21). After measuring spine length (the distance from the base of the neck to the furthest point on the spine heads) and diameter of spine head and neck, the ratio from each spine was calculated and compared. […] Mushroom spines were judged if the diameter of the head was three times larger than the diameter of their necks. Stubby spines were judged if the diameter of the neck was similar to the total length of the spine."}, "[2]": {"test_system": "cultured hippocampal neurons", "experiment": "Synaptic clustering of NR2B, PSD-95 and synapsin by immunocytochemistry", "format": "cell-based, rat", "details": "10 μM for 4 days from 10 DIV; compared to untreated cells", "description": "as §1, §2, §3, §4"}, "[3]": {"test_system": "HuD-mRNA binding", "details": "hippocampal neurons in vitro; previous studies (ref. 22); cited from earlier work"}, "[4]": {"details": "inhibitor treatment for 4 days, compared with untreated"}}}
{"smiles": "O=C(Nc1ccc2c([O-])cc(S(=O)(=O)[O-])cc2c1)Nc1ccc2c([O-])cc(S(=O)(=O)[O-])cc2c1.[Na+].[Na+].[Na+].[Na+]", "note": "[AMI-1, 7,7′-(carbonylbis(azanediyl))bis(4-oxidonaphthalene-2-sulfonate), sodium salt]", "values": [{"measurement": "spine head width", "setting": "[1]; 2.5 μM for 4 days from 10 DIV", "value": "0.899±0.052", "unit": "μm"}, {"measurement": "spine length", "setting": "[1]; 2.5 μM for 4 days from 10 DIV", "value": "1.748±0.093", "unit": "μm"}, {"measurement": "spine density", "setting": "[1]; 2.5 μM for 4 days from 10 DIV", "value": "4.49±0.54", "unit": "spines per 10 μm dendrite"}, {"measurement": "spine head width", "setting": "[1]; 10 μM for 4 days from 10 DIV, P=0.0085", "value": "0.982±0.044", "unit": "μm"}, {"measurement": "spine length", "setting": "[1]; 10 μM for 4 days from 10 DIV, not statistically significant", "value": "1.634±0.072", "unit": "μm"}, {"measurement": "spine density", "setting": "[1]; 10 μM for 4 days from 10 DIV, no significant difference", "value": "5.54±0.62", "unit": "spines per 10 μm dendrite"}, {"measurement": "proportion of filopodia-type, including thin-type, spines", "setting": "[1]; [4]", "value": "dramatic decrease"}, {"measurement": "proportion of mushroom-type spines", "setting": "[1]; [4]", "value": "significantly increased"}, {"measurement": "NR2B number of clusters", "setting": "[2]", "value": "increase"}, {"measurement": "NR2B synaptic cluster size", "setting": "[2]", "value": "increase"}, {"measurement": "PSD-95 number of clusters", "setting": "[2]", "value": "increase"}, {"measurement": "PSD-95 synaptic cluster size", "setting": "[2]", "value": "increase"}, {"measurement": "synapsin synaptic cluster number", "setting": "[2]", "value": "no difference"}, {"measurement": "synapsin synaptic cluster size", "setting": "[2]", "value": "no difference"}, {"measurement": "HuD-mRNA binding and the stability and expression of NTFs, including BDNF", "setting": "[3]", "value": "increased"}]}
